Format in all cases: cell-based
The subject of test [1] is Aβ1-42 production in SweAPP N2A cells (N2A-APPswe). In words: Aβ1-42 ELISA of conditioned medium of SweAPP N2A cells. In general terms: In an ELISA, binding on a coated surface is turned into a signal by an enzyme label.
Experimental: Neuro-2A cells expressing Swedish mutants of (“SweAPP N2A cells”) was cultured in minimal essential medium with glutamine (2 mM), pyruvate (2 mM) and fetal bovine serum (10%). Cells were seeded at 6-well plate at 1×10^6 cells/mL and grown overnight. The medium was replaced.
Conditioned medium was diluted with 2 part volume of ELISA diluents. Aβ1-42 concentrations were determined by using human Aβ1-42 ultrasensitive ELISA kit (manufactured by Invitrogen).
Cell culture: Neuro-2A cells expressing Swedish mutants of APP (N2A-APPswe) ENREF 12 was cultured in minimal essential medium with 2 mM glutamine, 2 mM pyruvate and 10% fetal bovine serum. Cells were seeded at 6-well plate at 1×10^6 cells/mL and grown for two days until confluence. The medium was replaced and the test compounds were added at indicated concentrations for 24 hr.
For test [2], the system named is HepG2, human hepatoma cells. Kind of test: Growth of cancer cell lines: HepG2. The conditions noted are these: mean ± S.D., n = 3; read-out: IC50 against growth of HepG2.
Test [3] has as its system HeLa, human cervical carcinoma cells. In words: Growth of cancer cell lines: HeLa. The conditions noted are these: mean ± S.D., n = 3; read-out: IC50 against growth of HeLa.
For test [4], the system named is SW480, human colon adenocarcinoma cells. Kind of test: Growth of cancer cell lines: SW480. The conditions noted are these: mean ± S.D., n = 3; read-out: IC50 against growth of SW480.
Test [5] concerns NCI-H460, human non-small lung carcinoma cells. In words: Growth of cancer cell lines: NCI-H460. To be noted: mean ± S.D., n = 3; read-out: IC50 against growth of NCI-H460.
Test [6] concerns Aβ42, Aβ40 and Aβ38 in N2A-APPswe cells. Kind of test: Aβ42, Aβ40 and Aβ38 profiles in conditioned medium by ELISA. To be noted: FIG. 18, 18 hr. The method, then: Aβ ELISA: Aβ concentrations in conditioned medium were assayed using ELISA kits for human Aβ40, human Aβ42 (ultrasensitive) (Invitrogen) and Aβ38 (MyBioSource).
Cells were treated with various concentrations of (TAIII/TAI/AA/TAV) and DMSO vehicle (C) for 18 hr. In part A of FIG. 18, the expression of full length (FL) and CTF (c99 and c83) in cell lysates and secreted APP (sAPPα and sAPPP) in the conditioned medium were examined by immunoblot using methods specified in Example 6. In part B of FIG. 18, the profiles of Aβ42, Aβ40 and Aβ38 in the conditioned medium were determined by ELISA using methods specified in Example 5.

In the next test the test system is Neuro-2A cells. In words: Neurite outgrowth of N2A cells. The conditions noted are these: FIG. 19; TAIII 5 μM, TAI 10 μM, SSG 25 μM, 18 hr, type III β-tubulin staining.
The mark [7] stands for this setting: Table 4, N2A-APPswe cells, mean ± S.D, n ≥ 3, read-out: IC50 in lowering Aβ42 production.
The mark [8] stands for this setting: N2a-APPswe, read-out: IC50 in lowering Aβ42 production.

Like-named read-outs stand apart in the source and are kept apart here.

Experimental for Neuro-2A cells: Immunofluorescence examination of neurite outgrowth: Neuro-2A cells were seeded at 1×10^5 cells per glass bottom dish. After treatment, cells were fixed with 4% paraformaldyde for 10 min, permeabilized with 0.1% Trition X-100, and then blocked with 1% BSA in PBS. The cells were incubated with monoclonal antibody raised against type III β-tubulin (Sigma) for 1 hr followed by Alexa488 conjugated secondary antibody. Neurite morphology was examined under fluorescence microscope.

For the compound `C[C@H]1CC[C@@]2(OC1)O[C@H]1C[C@H]3[C@@H]4CC=C5C[C@@H](O)CC[C@]5(C)[C@H]4CC[C@]3(C)[C@H]1[C@@H]2C` [Yamogenin], the IC50 in test [1] (setting [7]) is over 100 µM.
For `C[C@@H](CC[C@@]1(O)O[C@H]2C[C@H]3[C@@H]4CC[C@@H]5C[C@@H](O[C@@H]6O[C@H](CO)[C@H](O)[C@H](O)[C@H]6O[C@@H]6O[C@H](CO)[C@@H](O)[C@H](O)[C@H]6O)CC[C@]5(C)[C@H]4CC[C@]3(C)[C@H]2[C@@H]1C)CO[C@@H]1O[C@H](CO)[C@@H](O)[C@H](O)[C@H]1O` [Timosaponin BII], the IC50 in test [2], in test [3], in test [4] and in test [5] was over 100 µM throughout.
For `CC(CO)CCC1OC2CC3C4CCC5CC(O)CCC5(C)C4CCC3(C)C2C1C` (stereo not drawn) [Dihydrosarsasapogenin], in test [1] (setting [7]), the IC50 is over 100 µM.
For `C[C@@H]1CC[C@@]2(OC1)O[C@H]1C[C@H]3[C@@H]4CC[C@@H]5C[C@@H](O)CC[C@]5(C)[C@H]4CC[C@]3(C)[C@H]1[C@@H]2C` [Smilagenin], in test [1] (setting [8]), the IC50 was over 100 µM.
In the case of `C[C@H]1CC[C@@]2(OC1)O[C@H]1C[C@H]3[C@@H]4CC[C@@H]5C[C@@H](O[C@@H]6O[C@H](CO)[C@@H](O)[C@H](O)[C@H]6O)CC[C@]5(C)[C@H]4CC[C@]3(C)[C@H]1[C@@H]2C` [Asparagoside A], the IC50 in test [2] came to 7.72 ± 2.68 µM; in test [3], 65.4 ± 20.9 µM; in test [4] it was 15.6 ± 1.96 µM; in test [5], 14.1 ± 0.64 µM; in test [1] (setting [7]) it was 6 ± 1.4 µM. For the same compound, the “Aβ profile (Aβ42 vs Aβ40 and Aβ38)” value in test [6] was “preferentially lower Aβ42 production”. Further, the Neurite outgrowth entry in the test on Neuro-2A cells is “significant extension and branching of neurites”.
Regarding `C[C@H]1CC[C@@]2(OC1)O[C@H]1C[C@H]3[C@@H]4CC[C@H]5C[C@@H](O)CC[C@]5(C)[C@H]4CC[C@]3(C)[C@H]1[C@@H]2C` [Neotigogenin], in test [1] (setting [8]), the IC50 is over 100 µM.
In the case of `CO[C@]1(CC[C@H](C)CO[C@@H]2O[C@H](CO)[C@@H](O)[C@H](O)[C@H]2O)O[C@H]2C[C@H]3[C@@H]4CC[C@@H]5C[C@@H](O[C@@H]6O[C@H](CO)[C@H](O)[C@H](O)[C@H]6O[C@@H]6O[C@H](CO)[C@@H](O)[C@H](O)[C@H]6O)CC[C@]5(C)[C@H]4CC[C@]3(C)[C@H]2[C@@H]1C` [Timosaponin BI], the IC50 in test [2], in test [3], in test [4], in test [5] and in test [1] (setting [7]) was over 100 µM throughout.
`C[C@@H]1CC[C@@]2(OC1)O[C@H]1C[C@H]3[C@@H]4C[C@H](O)[C@H]5C[C@@H](O)CC[C@]5(C)[C@H]4CC[C@]3(C)[C@H]1[C@@H]2C` [5α-H, 6α-OH diosgenin]: the IC50 in test [1] (setting [7]) was over 100 µM.
Turning to `C[C@@H]1CC[C@@]2(OC1)O[C@H]1C[C@H]3[C@@H]4CC[C@H]5C[C@@H](O)CC[C@]5(C)[C@H]4CC[C@]3(C)[C@H]1[C@@H]2C` [Tigogenin], in test [1] (setting [8]), the IC50 was over 100 µM.
Consider `C[C@@H]1CC[C@@]2(OC1)O[C@H]1C[C@H]3[C@@H]4C[C@@H](O)[C@@H]5C[C@@H](O)CC[C@]5(C)[C@H]4CC[C@]3(C)[C@H]1[C@@H]2C` [5β-H, 6β-OH diosgenin], for which the IC50 in test [1] (setting [7]) was over 100 µM.
On the same count and under the same terms, the figure for `CC(C)[C@@H](C)/C=C/[C@@H](C)[C@H]1CC[C@H]2C3=CC=C4C[C@@H](O)CC[C@]4(C)[C@H]3CC[C@]12C` [Ergosterol, reference compound] is over 100 µM; for `C[C@@H]1CC[C@@]2(OC1)O[C@H]1C[C@H]3[C@@H]4CC=C5C[C@@H](O[C@@H]6O[C@H](CO)[C@H](O)[C@H](O)[C@H]6O)CC[C@]5(C)[C@H]4CC[C@]3(C)[C@H]1[C@@H]2C` [Capsicoside A3] it is over 100 µM.
On the same count and under the same terms, the figure for `C[C@@H]1CC[C@@]2(OC1)O[C@H]1C[C@H]3[C@@H]4CC[C@@H]5CC(=O)CC[C@]5(C)[C@H]4CC[C@]3(C)[C@H]1[C@@H]2C` [Sarsasapogenone] is 50 ± 5 µM.
Still for that read-out and setting: for `C[C@H]1CC[C@@]2(OC1)O[C@H]1C[C@H]3[C@@H]4C[C@@H](O)[C@@H]5C[C@@H](O)CC[C@]5(C)[C@H]4CC[C@]3(C)[C@H]1[C@@H]2C` [5β-H, 6β-OH yamogenin] the value was 45 ± 4 µM.
Take `C[C@H]1CC[C@@]2(OC1)O[C@H]1C[C@H]3[C@@H]4CC[C@@H]5C[C@@H](O[C@@H]6O[C@H](CO)[C@H](O[C@@H]7O[C@H](CO)[C@@H](O)[C@H](O)[C@H]7O)[C@H](O)[C@H]6O[C@@H]6O[C@H](CO)[C@@H](O)[C@H](O)[C@H]6O)CC[C@]5(C)[C@H]4CC[C@]3(C)[C@H]1[C@@H]2C` [Timosaponin AV]: the IC50 worked out at 17.4 ± 4.29 µM in test [2]; 21.6 ± 5.2 µM in test [3]; 21.7 ± 2.27 µM in test [4]; 20 ± 0.71 µM in test [5]; 4.2 ± 1.2 µM in test [1] (setting [7]). Moreover, in test [6], the “Aβ profile (Aβ42 vs Aβ40 and Aβ38)” value is recorded as “preferentially lower Aβ42 production”.
`C[C@H]1CC[C@@]2(OC1)O[C@H]1C[C@H]3[C@@H]4CC[C@@H]5C[C@@H](O[C@@H]6O[C@H](CO)[C@H](O)[C@H](O)[C@H]6O)CC[C@]5(C)[C@H]4CC[C@]3(C)[C@H]1[C@@H]2C` [Timosaponin AI]: the IC50 in test [2] was 10.5 ± 4.64 µM; in test [3] it was 44.5 ± 1.15 µM; in test [4], 12.1 ± 3.83 µM; in test [5] it was 10.2 ± 4.64 µM; in test [1] (Example 7, SweAPP N2A cells, Aβ1-42 ELISA, read-out: IC50, inhibition of Aβ production) it was about 20 µM; in test [1] (Example 9, SweAPP N2A cells, Aβ1-42 ELISA, read-out: ICS50, inhibitor of Aβ production), 5 µM. Also, the IC50 in test [1] (setting [7]) was 6.1 ± 2.8 µM. In addition, in test [6], the “Aβ profile (Aβ42 vs Aβ40 and Aβ38)” value was “preferentially lower Aβ42 production”. Also, the Neurite outgrowth result in the test with Neuro-2A cells was “significant extension and branching of neurites”.
For the compound `C[C@H]1CC[C@@]2(OC1)O[C@H]1C[C@H]3[C@@H]4C[C@H](O)[C@H]5C[C@@H](O)CC[C@]5(C)[C@H]4CC[C@]3(C)[C@H]1[C@@H]2C` [5α-H, 6α-OH yamogenin], the IC50 in test [1] (setting [7]) is over 100 µM.
On the same count and under the same terms, the figure for `C[C@H]1CC[C@@]2(OC1)O[C@H]1C[C@H]3[C@@H]4CC[C@@H]5C[C@H](O)CC[C@]5(C)[C@H]4CC[C@]3(C)[C@H]1[C@@H]2C` [Episarsasapogenin] is over 100 µM; for `C[C@@H]1CC[C@@]2(OC1)O[C@H]1C[C@H]3[C@@H]4CC=C5C[C@@H](O)CC[C@]5(C)[C@H]4CC[C@]3(C)[C@H]1[C@@H]2C` [Diosgenin] it is over 100 µM.
